Data published in ChEMBL document CHEMBL3414438, “5'-C-Ethyl-tetrazolyl-N(6)-substituted adenosine and 2-chloro-adenosine derivatives as highly potent dual acting A1 adenosine receptor agonists and A3 adenosine receptor antagonists” (J Med Chem, 2015).
The source made the active and inactive calls. No cut-off for these calls is given here.

Legend:
Adenosine receptor A2a [1] = target: T1, Adenosine receptor A2a (Homo sapiens, UniProt P29274); experiment: Agonist activity at human recombinant adenosine A2A receptor transfected in CHO cells assessed as induction of adenylyl cyclase activity; assay type: functional, cell-based
T1 sequence (P29274 whole entry): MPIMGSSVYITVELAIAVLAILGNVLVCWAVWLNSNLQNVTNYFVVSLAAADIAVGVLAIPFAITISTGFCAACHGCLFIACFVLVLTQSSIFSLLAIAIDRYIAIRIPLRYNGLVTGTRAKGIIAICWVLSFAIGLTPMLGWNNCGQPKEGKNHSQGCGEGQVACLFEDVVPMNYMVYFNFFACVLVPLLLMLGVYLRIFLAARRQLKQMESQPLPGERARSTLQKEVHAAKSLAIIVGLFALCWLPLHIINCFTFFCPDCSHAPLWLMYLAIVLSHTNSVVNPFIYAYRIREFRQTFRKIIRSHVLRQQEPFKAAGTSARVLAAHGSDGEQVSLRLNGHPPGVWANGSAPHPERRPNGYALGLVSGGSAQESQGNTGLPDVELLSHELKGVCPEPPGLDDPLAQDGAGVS

Adenosine receptor A1 [2] = target: T2, Adenosine receptor A1 (Homo sapiens, UniProt P30542); experiment: (§1) Agonist activity at human recombinant adenosine A1 receptor transfected in CHO cells assessed as inhibition of forskolin-induced adenylyl cyclase activity; assay type: functional, cell-based
T2 sequence (P30542 whole entry): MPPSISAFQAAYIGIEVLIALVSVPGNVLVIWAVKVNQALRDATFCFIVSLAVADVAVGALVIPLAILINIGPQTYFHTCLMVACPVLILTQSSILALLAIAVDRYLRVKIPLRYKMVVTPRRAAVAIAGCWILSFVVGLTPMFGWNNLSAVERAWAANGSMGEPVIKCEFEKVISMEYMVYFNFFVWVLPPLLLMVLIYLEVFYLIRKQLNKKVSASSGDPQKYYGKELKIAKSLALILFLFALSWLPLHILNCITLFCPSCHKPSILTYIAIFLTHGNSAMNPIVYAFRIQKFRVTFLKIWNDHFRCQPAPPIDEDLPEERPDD

[3] = target: T3, Adenosine receptor A1 (Homo sapiens) (UniProt P30542); experiment: as §1; assay type: functional, cell-based
T3 sequence (whole entry): T2 sequence (P30542 whole entry)

Adenosine receptor A3 [4] = target: T4, Adenosine receptor A3 (Homo sapiens, UniProt P0DMS8); experiment: Displacement of [3H]-HEMADO from human recombinant adenosine A3 receptor transfected in CHO cells; assay type: cell-based
T4 sequence (P0DMS8 whole entry): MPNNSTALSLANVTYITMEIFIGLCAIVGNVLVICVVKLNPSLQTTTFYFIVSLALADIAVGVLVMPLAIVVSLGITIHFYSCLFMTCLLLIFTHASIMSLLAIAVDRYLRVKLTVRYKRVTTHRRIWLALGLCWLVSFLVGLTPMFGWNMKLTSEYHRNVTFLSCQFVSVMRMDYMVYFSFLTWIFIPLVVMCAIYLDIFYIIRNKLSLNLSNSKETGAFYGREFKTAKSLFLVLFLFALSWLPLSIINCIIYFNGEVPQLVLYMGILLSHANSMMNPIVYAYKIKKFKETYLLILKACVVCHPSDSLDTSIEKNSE

Adenosine receptor A1 [5] = target: T2, Adenosine receptor A1; experiment: Displacement of [3H]-CCPA from human recombinant adenosine A1 receptor transfected in CHO cells; assay type: cell-based
Adenosine receptor A3 [6] = target: T4, Adenosine receptor A3; experiment: Antagonist activity at human recombinant adenosine A3 receptor transfected in CHO cells assessed as reversal of NECA-induced inhibition of forskolin-induced adenylyl cyclase activity; assay type: functional, cell-based
[7] = target: T5, Adenosine receptor A2b (Homo sapiens) (UniProt P29275); experiment: (§2) Agonist activity at human recombinant adenosine A2B receptor transfected in CHO cells assessed as induction of adenylyl cyclase activity; assay type: functional, cell-based
T5 sequence (whole entry): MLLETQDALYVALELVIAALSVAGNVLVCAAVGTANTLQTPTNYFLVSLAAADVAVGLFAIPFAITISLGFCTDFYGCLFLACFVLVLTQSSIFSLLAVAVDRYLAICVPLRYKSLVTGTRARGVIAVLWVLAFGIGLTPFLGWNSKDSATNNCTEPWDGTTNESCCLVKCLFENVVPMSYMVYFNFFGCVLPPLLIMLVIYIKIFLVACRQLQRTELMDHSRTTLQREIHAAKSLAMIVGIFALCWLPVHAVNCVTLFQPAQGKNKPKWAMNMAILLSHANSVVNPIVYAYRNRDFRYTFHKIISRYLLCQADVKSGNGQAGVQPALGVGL

Adenosine receptor A2b = target: T6, Adenosine receptor A2b (Homo sapiens, UniProt P29275); experiment: as §2; assay type: functional, cell-based
T6 sequence (P29275 whole entry): T5 sequence (whole entry)

Adenosine receptor A2a [8] = target: T1, Adenosine receptor A2a; experiment: Displacement of [3H]-NECA from human recombinant adenosine A2A receptor transfected in CHO cells; assay type: cell-based
[9] = target: T5, Adenosine receptor A2b (Homo sapiens); experiment: Partial agonist activity at human recombinant adenosine A2B receptor transfected in CHO cells assessed as induction of adenylyl cyclase activity relative to NECA; assay type: functional, cell-based
Homo sapiens [10] = species: Homo sapiens; experiment: Selectivity ratio of Ki for human recombinant adenosine A2A receptor to Ki for human recombinant adenosine A3 receptor
Homo sapiens [11] = species: Homo sapiens; experiment: Selectivity ratio of Ki for human recombinant adenosine A2A receptor to Ki for human recombinant adenosine A1 receptor

Compound | EC50 (Adenosine receptor A2a [1]) | Efficacy (Adenosine receptor A2a [1]) | EC50 (Adenosine receptor A1 [2]) | Efficacy [3] | Ki (Adenosine receptor A3 [4]) | Ki (Adenosine receptor A1 [5]) | EC50 (Adenosine receptor A3 [6]) | Efficacy [7] | EC50 (Adenosine receptor A2b) | Ki (Adenosine receptor A2a [8]) | Efficacy [9] | Ratio Ki (Homo sapiens [10]) | Activity [9] | Ratio Ki (Homo sapiens [11]) | inhibition [3]
CCn1nnc([C@H]2O[C@@H](n3cnc4c(Nc5ccc(Cl)cc5F)nc(Cl)nc43)[C@H](O)[C@@H]2O)n1 | 28.8 nM | > 90% | 64.8 nM | > 90% | 4.71 nM | 1.67 nM | 37 nM | > 90% |  | 223 nM |  |  |  |  | 
CCn1nnc([C@H]2O[C@@H](n3cnc4c(NC)ncnc43)[C@H](O)[C@@H]2O)n1 | 1710 nM | > 90% | 97.2 nM | > 90% | 0.478 nM | 3.56 nM | 6.38 nM | > 90% | 1480 nM | 778 nM |  |  |  |  | 
CCn1nnc([C@H]2O[C@@H](n3cnc4c(NC5CC5)nc(Cl)nc43)[C@H](O)[C@@H]2O)n1 | 5.31 nM | > 90% | 3.62 nM | > 90% | 3.9 nM | 0.311 nM | 39.5 nM | > 90% | 1150 nM | 62.2 nM |  |  |  |  | 
CCn1nnc([C@H]2O[C@@H](n3cnc4c(NC5CCCO5)nc(Cl)nc43)[C@H](O)[C@@H]2O)n1 (stereo partly specified) | 33.2 nM | > 90% | 7.42 nM | > 90% | 9.62 nM | 1.06 nM | 104 nM | > 90% | 3150 nM | 870 nM |  |  |  |  | 
CCn1nnc([C@H]2O[C@@H](n3cnc4c(N)nc(Cl)nc43)[C@H](O)[C@@H]2O)n1 | 3.84 nM | > 90% | 19.8 nM | > 90% | 1.8 nM | 0.966 nM | 31.7 nM | > 90% | 542 nM | 20.7 nM |  |  |  |  | 
CCn1nnc([C@H]2O[C@@H](n3cnc4c(Nc5ccc(Cl)cc5F)ncnc43)[C@H](O)[C@@H]2O)n1 | 8.4 nM | > 90% | 10.2 nM | > 90% | 2.61 nM | 0.432 nM | 33.9 nM | > 90% | 530 nM | 77.5 nM |  |  |  |  | 
CCn1nnc([C@H]2O[C@@H](n3cnc4c(N[C@H]5C[C@@H]6CC[C@@H]5C6)nc(Cl)nc43)[C@H](O)[C@@H]2O)n1 (racemic) | 12.8 nM | > 90% | 10.2 nM | > 90% | 16.1 nM | 0.728 nM | 721 nM | > 90% | > 30000 nM | 164 nM |  |  |  |  | 
OC[C@H]1O[C@@H](n2cnc3c(NC4CCCC4)nc(Cl)nc32)[C@H](O)[C@@H]1O |  |  |  |  |  |  |  |  |  |  |  |  |  |  | Active

More lines, in order of falling EC50 (Adenosine receptor A2a [1]), values ahead:

EC50 (Adenosine receptor A2a [1]) | Efficacy (Adenosine receptor A2a [1]) | EC50 (Adenosine receptor A1 [2]) | Efficacy [3] | Ki (Adenosine receptor A3 [4]) | Ki (Adenosine receptor A1 [5]) | EC50 (Adenosine receptor A3 [6]) | Efficacy [7] | EC50 (Adenosine receptor A2b) | Ki (Adenosine receptor A2a [8]) | Efficacy [9] | Ratio Ki (Homo sapiens [10]) | Activity [9] | Ratio Ki (Homo sapiens [11]) | inhibition [3] | Compound
238 nM | > 90% | 250 nM | > 90% | 0.429 nM | 8.59 nM | 7.69 nM |  | 3510 nM | 3350 nM |  | 7800 | 75% | 390 |  | CCn1nnc([C@H]2O[C@@H](n3cnc4c(NC)nc(Cl)nc43)[C@H](O)[C@@H]2O)n1
25.1 nM | > 90% | 8.74 nM | > 90% | 15.4 nM | 1.23 nM | 61.9 nM | > 90% | 1340 nM | 554 nM |  |  |  |  |  | CCn1nnc([C@H]2O[C@@H](n3cnc4c(NC5CCCO5)ncnc43)[C@H](O)[C@@H]2O)n1 (stereo partly specified)
9.75 nM | > 90% | 8.61 nM | > 90% | 7.97 nM | 0.682 nM | 51.5 nM | > 90% | 675 nM | 93 nM |  |  |  |  |  | CCn1nnc([C@H]2O[C@@H](n3cnc4c(NC5CC5)ncnc43)[C@H](O)[C@@H]2O)n1
9.04 nM |  | 64.9 nM | > 90% | 0.588 nM | 2.39 nM | 13.3 nM |  | 834 nM | 108 nM | 76% |  |  |  |  | CCn1nnc([C@H]2O[C@@H](n3cnc4c(NCc5ccccc5I)nc(Cl)nc43)[C@H](O)[C@@H]2O)n1
7.71 nM | > 90% | 4.66 nM | > 90% | 8.85 nM | 0.453 nM | 83.9 nM | > 90% | 1010 nM | 64.5 nM |  |  |  |  |  | CCn1nnc([C@H]2O[C@@H](n3cnc4c(N[C@H]5C[C@@H]6CC[C@@H]5C6)ncnc43)[C@H](O)[C@@H]2O)n1 (racemic)
2.36 nM | > 90% | 26.3 nM | > 90% | 3.86 nM | 0.919 nM | 93.6 nM | > 90% | 347 nM | 8.12 nM |  |  |  |  |  | CCn1nnc([C@H]2O[C@@H](n3cnc4c(N)ncnc43)[C@H](O)[C@@H]2O)n1
